US9511134B2, “Inducing immune responses to influenza virus using polypeptide and nucleic acid compositions” (priority 2006, dated 2016)
Where no end group is shown, it is not given here.

Columns and labels:
Test in all cases: biochemical
Assay type in all cases: binding
[1] = molecular target: DRB1*0404 (Homo sapiens, UniProt P01903+P01911, A100R/A169T/F76Y/I96L/K127E/L162R/M171V/N62H/P40V/Q125Y/R42H/S133A/S149N/S66Y/V209L/W38E); details: IC50 nM to purified HLA DRB1*0404
[2] = molecular target: DRB1*1302 (Homo sapiens, UniProt P01903+P01911, A100E/A169T/K41T/L162R/M171V/P40S/Q125H/Q178H/Q39Y/Q99D/R42S/S66N/T262R/V115G/W38E/Y61H); details: read-out: IC50 nM to purified HLA DRB1*1302
[3] = molecular target: T1, DRB1*0101 (Homo sapiens, UniProt P01903+P01911, A100R/D57E/F55L/F60I/F76Y/I96L/L162R/M171V/P40L/Q125E/R42F/V115G/Y59C); details: IC50 nM to purified HLA DRB1*0101
T1 construct: made in house; host or cells: EBV-transformed homozygous human B cell lines, transfected fibroblasts or single-allele 721.221 transfectants

[4] = molecular target: T2, DRB1*0301 (Homo sapiens, UniProt P01903+P01911, A100K/A102G/A103R/A169T/F55Y/I96L/K41T/L162R/M171V/P40S/Q125H/Q178H/Q39Y/R42S/S66N/T106N/T262R/W38E/Y61H)
T2 construct: made in house; host or cells: EBV-transformed homozygous human B cell lines, transfected fibroblasts or single-allele 721.221 transfectants

[5] = molecular target: T3, DRB1*0401 (Homo sapiens, UniProt P01903+P01911, A100K/A169T/F76Y/I96L/K127E/L162R/M171V/N62H/P40V/Q125Y/R42H/S133A/S149N/S66Y/V115G/V209L/W38E); details: read-out: IC50 nM to purified HLA DRB1*0401
T3 construct: made in house; host or cells: EBV-transformed homozygous human B cell lines, transfected fibroblasts or single-allele 721.221 transfectants

[6] = molecular target: T4, DRB1*1501 (Homo sapiens, UniProt P01903+P01911); details: read-out: IC50 nM to purified HLA DRB1*1501
T4 construct: made in house; host or cells: EBV-transformed homozygous human B cell lines, transfected fibroblasts or single-allele 721.221 transfectants

Chain of DRB1*1302 (P01903 26-254 limits assumed, other chains not shown): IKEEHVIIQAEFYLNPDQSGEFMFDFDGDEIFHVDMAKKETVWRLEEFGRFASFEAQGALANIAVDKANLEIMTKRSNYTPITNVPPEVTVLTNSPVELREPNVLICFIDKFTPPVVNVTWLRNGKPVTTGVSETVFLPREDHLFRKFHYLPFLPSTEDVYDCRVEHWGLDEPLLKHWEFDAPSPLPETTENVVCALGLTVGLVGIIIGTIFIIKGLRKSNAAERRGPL
T2 sequence (P01903 26-254, other chains not shown): as the sequence (P01903 26-254 limits assumed, other chains not shown) above

Compound | IC50 [1] | IC50 [2] | IC50 [3] | IC50 [4] | IC50 [5] | IC50 [6]
CC[C@H](C)[C@H](NC(=O)[C@@H](NC(=O)[C@H](CC(C)C)NC(=O)[C@H](CO)NC(=O)[C@H](CCC(N)=O)NC(=O)[C@H](CC(=O)O)NC(=O)[C@@H](NC(=O)[C@H](CC(=O)O)NC(=O)[C@H](CC(=O)O)NC(=O)[C@H](CC(N)=O)NC(=O)[C@H](CCCNC(=N)N)NC(=O)[C@@H](NC(=O)[C@H](CCC(=O)O)NC(=O)CNC(=O)CN)C(C)C)C(C)C)[C@@H](C)CC)C(=O)O [Flu.PB2.250] | 458 nM | 2500 nM |  |  |  | 
CC(C)C[C@H](NC(=O)[C@H](CCCCN)NC(=O)[C@H](CCCNC(=N)N)NC(=O)[C@H](CO)NC(=O)[C@H](CCC(=O)O)NC(=O)[C@H](C)NC(=O)[C@H](CO)NC(=O)[C@H](Cc1ccccc1)NC(=O)CNC(=O)[C@H](CCC(=O)O)NC(=O)[C@@H](N)CC(C)C)C(=O)N[C@@H](CC(C)C)C(=O)N[C@@H](CC(C)C)C(=O)N[C@H](C(=O)N[C@H](C(=O)O)C(C)C)C(C)C [Flu.PA.658] |  | 2270 nM | 12 nM | 661 nM | 861 nM | 
CC[C@H](C)[C@H](NC(=O)[C@H](CC(C)C)NC(=O)[C@@H](N)Cc1ccccc1)C(=O)N[C@@H](CC(C)C)C(=O)NCC(=O)N[C@@H](CCCCN)C(=O)N[C@@H](CCC(=O)O)C(=O)N[C@@H](CC(=O)O)C(=O)N[C@@H](CCCNC(=N)N)C(=O)N[C@@H](CCCNC(=N)N)C(=O)N[C@@H](Cc1ccc(O)cc1)C(=O)NCC(=O)N1CCC[C@H]1C(=O)N[C@@H](C)C(=O)N[C@@H](CC(C)C)C(=O)O [Flu.PB2.697] |  | 118 nM | 8390 nM | 565 nM | 1740 nM | 
CC[C@H](C)[C@H](NC(=O)[C@H](CCCNC(=N)N)NC(=O)[C@H](CCCCN)NC(=O)[C@H](CC(=O)O)NC(=O)[C@H](C)NC(=O)[C@@H](NC(=O)[C@@H](NC(=O)[C@@H]1CCCN1C(=O)[C@H](Cc1ccc(O)cc1)NC(=O)[C@@H](N)CCCCN)[C@@H](C)CC)[C@@H](C)O)C(=O)N[C@@H](CCSC)C(=O)N[C@@H](CCC(=O)O)C(=O)N[C@@H](CCSC)C(=O)N[C@H](C(=O)N1CCC[C@H]1C(=O)O)[C@@H](C)CC [Flu.PB2.57] | 2290 nM | 68 nM |  | 48 nM | 9390 nM | 
PVHFRNQVKIRRRVD [Flu.PB2.135] | 5980 nM | 359 nM | 2970 nM | 458 nM | 1300 nM | 
CSCC[C@H](NC(=O)[C@H](C)NC(=O)[C@H](CCCCN)NC(=O)[C@@H](N)CCC(N)=O)C(=O)N[C@@H](CCSC)C(=O)N[C@@H](CC(=O)O)C(=O)N[C@@H](CCC(N)=O)C(=O)N[C@H](C(=O)N[C@@H](CCCNC(=N)N)C(=O)N[C@@H](CCC(=O)O)C(=O)N[C@@H](CO)C(=O)N[C@@H](CCCNC(=N)N)C(=O)N[C@@H](CC(N)=O)C(=O)N1CCC[C@H]1C(=O)NCC(=O)O)C(C)C [Flu.NP.238] | 1830 nM |  |  | 450 nM |  | 
CC[C@H](C)[C@H](NC(=O)[C@H](C)NC(=O)[C@@H](N)CCC(N)=O)C(=O)N[C@@H](CCSC)C(=O)N[C@@H](CC(=O)O)C(=O)N[C@@H](CCCCN)C(=O)N[C@@H](CC(=O)O)C(=O)N[C@H](C(=O)N[C@H](C(=O)N[C@@H](CC(C)C)C(=O)N[C@@H](CCCCN)C(=O)N[C@@H](C)C(=O)N[C@@H](CC(N)=O)C(=O)N[C@@H](Cc1ccccc1)C(=O)N[C@@H](CO)C(=O)O)[C@@H](C)CC)[C@@H](C)CC [Flu.NS1.124] | 310 nM |  |  |  |  | 
CC[C@H](C)[C@H](NC(=O)[C@H](CO)NC(=O)[C@H](CCC(=O)O)NC(=O)CN)C(=O)N[C@H](C(=O)N[C@H](C(=O)N[C@@H](CCC(=O)O)C(=O)N[C@@H](CC(C)C)C(=O)N[C@@H](CC(=O)O)C(=O)N[C@@H](CC(=O)O)C(=O)N1CCC[C@H]1C(=O)N[C@@H](CC(N)=O)C(=O)N[C@@H](C)C(=O)N[C@@H](CC(C)C)C(=O)N[C@@H](CC(C)C)C(=O)O)C(C)C)[C@@H](C)CC [Flu.PA.61] | 80 nM | 59 nM |  |  |  | 
CC[C@H](C)[C@H](NC(=O)[C@H](CCCNC(=N)N)NC(=O)[C@H](CCCNC(=N)N)NC(=O)[C@@H](NC(=O)[C@H](CCC(=O)O)NC(=O)[C@H](CCC(=O)O)NC(=O)[C@H](CCCCN)NC(=O)[C@H](CC(=O)O)NC(=O)[C@H](Cc1ccc(O)cc1)NC(=O)[C@H](CC(C)C)NC(=O)[C@@H](NC(=O)[C@H](CC(C)C)NC(=O)[C@H](CCC(=O)O)NC(=O)[C@@H](N)CCCNC(=N)N)[C@@H](C)CC)[C@@H](C)CC)C(=O)N[C@@H](Cc1c[nH]c2ccccc12)C(=O)O [Flu.NP.109] | 1800 nM |  |  | 59 nM |  | 
CC(C)C[C@H](NC(=O)[C@H](CCC(=O)O)NC(=O)[C@@H](NC(=O)[C@H](CO)NC(=O)[C@H](CCCCN)NC(=O)[C@@H](N)C(C)C)C(C)C)C(=O)N[C@@H](CC(=O)O)C(=O)N[C@@H](C)C(=O)N1CCC[C@H]1C(=O)N[C@@H](CC(N)=O)C(=O)N[C@@H](Cc1ccc(O)cc1)C(=O)N[C@@H](Cc1c[nH]cn1)C(=O)N[C@@H](Cc1ccc(O)cc1)C(=O)N[C@@H](CCC(=O)O)C(=O)N[C@@H](CCC(=O)O)C(=O)O [Flu.NA.244] |  | 197 nM |  | 65 nM |  | 
CC[C@H](C)[C@H](NC(=O)[C@H](CCC(=O)O)NC(=O)[C@H](CC(=O)O)NC(=O)[C@H](CC(C)C)NC(=O)[C@H](CCC(=O)O)NC(=O)[C@@H](NC(=O)[C@H](Cc1c[nH]c2ccccc12)NC(=O)[C@@H](NC(=O)[C@@H](N)CO)[C@@H](C)CC)[C@@H](C)CC)C(=O)NCC(=O)N[C@@H](CCC(=O)O)C(=O)N[C@@H](CC(=O)O)C(=O)N[C@H](C(=O)N[C@@H](C)C(=O)N1CCC[C@H]1C(=O)O)C(C)C [Flu.PA.423] | 7610 nM |  | 13400 nM | 59 nM | 5400 nM | 
CC(C)C[C@H](NC(=O)[C@H](CO)NC(=O)[C@H](CCCNC(=N)N)NC(=O)[C@H](CC(C)C)NC(=O)[C@H](CCC(=O)O)NC(=O)[C@@H]1CCCN1C(=O)[C@H](CCC(=O)O)NC(=O)[C@H](CC(=O)O)NC(=O)[C@H](CO)NC(=O)[C@H](CC(=O)O)NC(=O)[C@H](Cc1ccc(O)cc1)NC(=O)[C@H](CCC(N)=O)NC(=O)[C@H](CCCCN)NC(=O)[C@@H](N)CC(C)C)C(=O)N[C@@H](CO)C(=O)O [Flu.PA.393] | 5800 nM |  | 17700 nM | 88 nM | 7260 nM | 
CC[C@H](C)[C@H](NC(=O)[C@H](CCSC)NC(=O)[C@H](CC(N)=O)NC(=O)[C@@H](N)CC(N)=O)C(=O)N[C@@H](CC(N)=O)C(=O)N[C@@H](CC(N)=O)C(=O)N[C@@H](CC(=O)O)C(=O)N[C@@H](CC(C)C)C(=O)NCC(=O)N1CCC[C@H]1C(=O)N[C@@H](C)C(=O)N[C@H](C(=O)N[C@@H](C)C(=O)N[C@@H](CCC(N)=O)C(=O)N[C@@H](CCSC)C(=O)O)[C@@H](C)O [Flu.PB1.535] | 1830 nM | 477 nM |  | 527 nM | 798 nM | 
CC[C@H](C)[C@H](NC(=O)[C@H](CCCNC(=N)N)NC(=O)[C@H](CCC(=O)O)NC(=O)[C@@H](N)C(C)C)C(=O)N[C@@H](CC(C)C)C(=O)N[C@@H](CCCCN)C(=O)N[C@@H](CCC(=O)O)C(=O)N[C@@H](CCC(=O)O)C(=O)N[C@@H](CO)C(=O)N[C@@H](CC(=O)O)C(=O)N[C@@H](CCC(=O)O)C(=O)N[C@@H](C)C(=O)N[C@@H](CC(C)C)C(=O)N[C@@H](CCCCN)C(=O)N[C@@H](CCSC)C(=O)O [Flu.NS1.68] |  | 5060 nM | 5190 nM | 1050 nM | 679 nM | 
CC[C@H](C)[C@H](NC(=O)[C@H](CC(N)=O)NC(=O)[C@H](Cc1ccc(O)cc1)NC(=O)[C@H](CC(C)C)NC(=O)[C@H](CC(N)=O)NC(=O)[C@@H]1CCCN1C(=O)CNC(=O)CNC(=O)[C@H](CC(=O)O)NC(=O)[C@H](CO)NC(=O)[C@@H](NC(=O)[C@H](CC(C)C)NC(=O)[C@H](CC(C)C)NC(=O)CNC(=O)[C@H](C)N)C(C)C)C(=O)O [Flu.PB1.590] | 3490 nM | 105 nM | 8120 nM | 107 nM | 3000 nM | 
CC(C)C[C@H](NC(=O)[C@H](C)NC(=O)CNC(=O)[C@H](CCC(N)=O)NC(=O)[C@@H](N)[C@@H](C)O)C(=O)N[C@@H](CC(C)C)C(=O)N[C@@H](CC(N)=O)C(=O)N[C@@H](CC(=O)O)C(=O)N[C@@H](CCCCN)C(=O)N[C@@H](Cc1c[nH]cn1)C(=O)N[C@@H](CO)C(=O)N[C@@H](CC(N)=O)C(=O)NCC(=O)N[C@H](C(=O)N[C@H](C(=O)N[C@@H](CCCCN)C(=O)N[C@@H](CC(=O)O)C(=O)O)C(C)C)[C@@H](C)O [Flu.NA.115] |  | 468 nM |  | 177 nM | 19000 nM | 822 nM
